Measured values published in US20220395553A1, “CXCR4 ANTAGONIST PEPTIDES” (COHBAR, INC., priority 2019, published 2022).

Tests used:
[1] = test system: U937 cells; experiment: CXCL12 mediated cell migration, U937 cells; format: cell-based, human; conditions: Homo sapiens, U-937, 4 h, read-out: Percent Inhibition of CXCL12 Mediated Migration
Experimental: Peptides were initially prepared as 1 mM stock in H2O and tested at a final concentration of 1 μM. […] U937 cells were resuspended in serum free media containing 0.5% bovine serum albumin (RPMI+GlutaMax (Gibco/Thermo Fisher Scientific, Gaithersburg, Md.)) at density of 5×10^6 cells/ml. […] Following the 4 hour incubation period the filter inserts were carefully removed and the migration of cells across the filter into the bottom chamber (receiver wells) was determined by measuring ATP levels using Cell TiterGlo 2.0, according to manufacturer's instructions (Promega, Madison, Wis.); luminescence measured using a Cytation 3 plate reader (BioTek, Winooski, Vt.).

[2] = test system: Jurkat cells; experiment: CXCL12 mediated cell migration, Jurkat cells; format: cell-based, human; conditions: Homo sapiens, Jurkat, 1 h, read-out: Percent Inhibition of CXCL12 Mediated Migration (1.1 μM Test Article)
Outline: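 Jurkat cells in serum-free RPMI with 0.5% BSA, 250,000 per upper chamber of a 5 μm Transwell, with peptides at 1.1 μM final. Migration toward CXCL12 ran 1 h at 37 °C in 5% CO2. Cells reaching the lower chamber quantified by ATP luminescence (CellTiter-Glo 2.0).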

[3] = test system: CXCR4/CXCL12 induced p-MEK; experiment: CXCR4/CXCL12 induced p-MEK in Jurkat cells (ELISA); format: cell-based, human; conditions: Homo sapiens, Jurkat, 5 min
Outline: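 Jurkat cells in RPMI+GlutaMax containing 10% FBS and 1% penicillin/streptomycin, fresh or conditioned, were resuspended at 2×10^6 cells/ml and […] aliquots placed in tubes. After a 5 min stimulation they were pelleted, rinsed with HBSS and lysed with PMSF and protease/phosphatase inhibitors. Phospho-MEK1 (Ser217/221) was quantified by sandwich ELISA with absorbance read at 450 nm.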

[4] = test system: SH-SY5Y Neuroblastoma Cells; experiment: ATP levels (CellTiter-Glo); format: cell-based, human; conditions: staurosporine 1 μM
Experimental: The effect of the peptides on cellular metabolism can be assessed using an assay of ATP levels in cultured cells such as human neuroblastoma cells. Peptides were initially prepared as 10 mM stock in DMSO and used at a final concentration of 10 μM (0.1% DMSO). […] CellTiter-Glo® Assay kit was purchased from Promega. SH-SY5Y human bone marrow neuroblastoma cell line was purchased from American Type Culture Collection (Manassas, Va.) and licensed from Memorial Sloan-Kettering Cancer Center (New York, N.Y.). SH-SY5Y cells were grown in DMEM/F12 medium supplemented with 10% FBS with 100 IU/ml penicillin and 100 μg/ml streptomycin. Cultures were maintained at 37° C. in a humidified atmosphere of 5% CO2/95% air. SH-SY5Y cells were seeded at 30,000 cells per well on 96-well plates. […] ATP levels were determined using a CellTiter-Glo Assay kit (Promega) according to the manufacturer's instructions. Luminescence for each sample well on the plate was measured using a Cytation 3 plate reader (BioTek, Winooski, Vt.). Activity was calculated relative to 0.1% DMSO treated control. The relative standard deviation of the result for the 0.1% DMSO treated control was <5%.

[5] = Cell viability, PrestoBlue assay; format: cell-based; conditions: human; read-out: Cell viability, % of background corrected DMSO control value
Experimental: The effect of the peptides on cell viability can be assessed in cultured cells using suitable assay of viability such as the PrestoBlue® assay (Thermo Fisher Scientific, Waltham, Mass.). Peptides were initially prepared as 10 mM stock in DMSO and tested at a final concentration of 10 μM (0.1% DMSO). […] PrestoBlue Assay Reagent was purchased from Thermo Fisher Scientific. A172 human brain glioblastoma cell line was purchased from American Type Culture Collection (Manassas, Va.). A172 cells were grown in DMEM supplemented with 10% FBS with 100 IU/ml penicillin and 100 μg/ml streptomycin. Cultures were maintained at 37° C. in a humidified atmosphere of 5% CO2/95% air. A172 cells were seeded at 8,000 cells per well on 96-well plates. […] Cell viability was determined using a PrestoBlue Assay reagent […] according to the manufacturer's instructions. Absorption for each sample well on the plate was measured using a Cytation 3 plate reader at 560 nm and 590 nm (BioTek, Winooski, Vt.). Activity was calculated relative to 0.1% DMSO untreated control. Treatment with 0.1% DMSO alone was used as the cell viability activity control. The relative standard deviation of the DMSO control was <5%.

[6] = test system: Rat H-4-II-E Cells; experiment: TBHP-induced reactive oxygen species (DCFDA); format: cell-based; conditions: sulforaphane 10 uM
Experimental: The protective or synergistic effect of the peptides on cellular levels of reactive oxygen species (ROS) induced by oxidative stress can be assessed using an assay of ROS in cultured cells exposed to a suitable oxidative stress. Peptides were initially prepared as 10 mM stock in DMSO and tested at a final concentration of 10 μM (0.1% DMSO). […] TBHP was used at final concentration of […]. Sulforaphane was used at a final concentration of 10 uM as a protective antioxidant control against TBHP induced ROS production. DCFDA Cellular ROS Detection Assay kit was purchased from […]. H-4-II-E rat liver hepatoma cell line was purchased from American Type Culture Collection (Manassas, Va.). H-4-II-E cells were grown in DMEM supplemented with 10% FBS with 100 IU/ml penicillin and 100 μg/ml streptomycin. Cultures were maintained at 37° C. in a humidified atmosphere of 5% CO2/95% air. H-4-II-E cells were seeded at 15,000-20,000 cells per well on 96-well plates. The next day cells were incubated with test peptides at 10 μM in 0.1% DMSO or sulforaphane at 10 uM and maintained at 37° C. in a humidified atmosphere of 5% CO2/95% air for 18-20 hours. After 18-20 hours of incubation the cells were loaded with DCFDA for 45 min. TBHP at 100 μM was then added to the appropriate wells for 1 hour. ROS activity was determined using a DCFDA Cellular ROS Detection Assay kit (Abcam) according to the manufacturer's instructions. Fluorescence in each sample well on the plate was measured using a Cytation 3 plate reader at Ex/Em=485/535 nm (BioTek, Winooski, Vt.). Activity was calculated relative to TBHP control. […] Activity was calculated relative to THBP treated control.

## c1cc(CN2CCCNCCNCCCNCC2)ccc1CN1CCCNCCNCCCNCC1 [AMD3100, reference compound]
[1]
  inhibition at 30 µM: 99%
[2]
  inhibition at 1.1 µM: 91%
[3]; read-out: Percent Inhibition of CXCR4/CXCL12 Induced p-MEK (100 nM Test Article)
  inhibition at 0.1 µM: 79%
[3]; read-out: Percent Inhibition of CXCR4/CXCL12 Induced p-MEK (1 μM Test Article)
  inhibition at 1 µM: 91%

## CN[C@@H]1C[C@H]2O[C@@](C)([C@@H]1OC)n1c3ccccc3c3c4c(c5c6ccccc6n2c5c31)C(=O)NC4 [staurosporine, Staurosporine, reference compound]
[4]
  ATP levels, % of 0.1% DMSO treated control value: < 5%
[5]
  viability at 1 µM: < 75%

## C[S+]([O-])CCCCN=C=S (stereo not shown) [sulphorophane, Sulforaphane, reference compound]
[6]
  ROS levels, % of the THBP-induced ROS level: 45.5%
